The values that follow come from patent US8420830B2, “Macrocyclic factor VIIa inhibitors useful as anticoagulants” (Bristol-Myers Squibb Company, priority 2006, dated 2013).

The conditions of series [1]: amide bond, BOP, CH2Cl2, 40.0 °C.
The conditions of series [2]: amide bond; 16-membered ring; TFA; BOP/DMAP/Et3N; CH2Cl2/DMF; 40.0 °C; 2 steps.
The target of the next series is T1, Factor VIIa (Homo sapiens, UniProt P08709).
T1 construct: purchased Haematologic Technologies (purified) or Novo Nordisk (recombinant)
As to the kind of experiment: Factor VIIa assay. Conditions: measured in the Factor VIIa assay described above; several values in a cell are repeat determinations. It counts as biochemical.

In series [3] the test system is patients undergoing total knee replacement. Conditions: cited from earlier work.
Series [4] concerns patients undergoing coronary angioplasty. Conditions: cited from earlier work.
The subject of series [5] is patients with acute coronary syndromes. Conditions: cited from earlier work.

Values joined by “and” are separate entries in the source; they are usually repeats but may differ in a detail not shown here. Identical values can stand only once. Like-named read-outs stand apart in the source and are kept apart here.

T1 sequence (P08709 213-466 limits assumed): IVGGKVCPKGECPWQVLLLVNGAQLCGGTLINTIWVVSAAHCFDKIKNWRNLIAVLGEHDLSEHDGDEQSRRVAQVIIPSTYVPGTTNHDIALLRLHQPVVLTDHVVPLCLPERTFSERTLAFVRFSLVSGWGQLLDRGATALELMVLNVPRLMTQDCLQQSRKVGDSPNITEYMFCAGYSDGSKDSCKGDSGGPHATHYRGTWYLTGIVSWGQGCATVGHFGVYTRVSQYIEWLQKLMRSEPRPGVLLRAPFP
T1 sequence (P08709 61-212 limits assumed): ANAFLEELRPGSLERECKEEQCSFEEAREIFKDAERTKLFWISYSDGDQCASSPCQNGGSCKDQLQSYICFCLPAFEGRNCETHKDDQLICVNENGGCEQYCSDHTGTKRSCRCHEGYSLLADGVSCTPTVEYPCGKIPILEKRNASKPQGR
T1 sequence (P13726 33-251 partner limits assumed): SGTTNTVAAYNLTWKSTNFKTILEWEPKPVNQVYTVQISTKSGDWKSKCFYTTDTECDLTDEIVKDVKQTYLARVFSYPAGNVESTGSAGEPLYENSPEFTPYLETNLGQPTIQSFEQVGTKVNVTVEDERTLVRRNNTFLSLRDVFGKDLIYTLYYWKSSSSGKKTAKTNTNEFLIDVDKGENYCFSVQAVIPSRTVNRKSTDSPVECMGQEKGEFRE

`CC(C)S(=O)(=O)c1ccc2cc1CN(C)C(=O)[C@H](Nc1ccc3c(c1)C(=O)NCC3)c1ccc(cc1)CCCC(=O)N2` had a ring closure, yield of all isomers in series [1] (from CNCc1cc(NC(=O)CCCc2ccc(C(Nc3ccc4c(c3)C(=O)NCC4)C(=O)O)cc2)ccc1S(=O)(=O)C(C)C, 5.11 mM, 7.0 h) of 19.9%.

Regarding `CCS(=O)(=O)c1ccc2cc1CNC(=O)[C@H](Nc1ccc3c(c1)C(=O)NCC3)c1ccc(cc1)CCCC(=O)N2`, in series [1] (from CCS(=O)(=O)c1ccc(NC(=O)CCCc2ccc(C(Nc3ccc4c(c3)C(=O)NCC4)C(=O)O)cc2)cc1CNC(=O)OC(C)(C)C, 6.0 h, 2 steps), the ring closure, yield of all isomers was determined as 28.4%. Also, the ring closure, yield after HPLC in series [2] was found to be 28.4%.

As to `CCS(=O)(=O)c1ccc2cc1CNC(=O)[C@H](Nc1ccc3c(c1)C(=O)NC3)c1ccc(cc1)CCCC(=O)N2`, the ring closure, yield of all isomers in series [1] (from CCS(=O)(=O)c1ccc(NC(=O)CCCc2ccc(C(Nc3ccc4c(c3)C(=O)NC4)C(=O)O)cc2)cc1CNC(=O)OC(C)(C)C, 6.6 mM, 6.0 h, 2 steps) turned out to be 27.7%.

On to `CCc1cc2ccc1[C@@H](C)COC(=O)Nc1ccc(S(=O)(=O)C3CC3)c(c1)CN(C)C(=O)[C@@H]2Nc1ccc2cc[nH]c(=O)c2c1` [Example 18, (2R,15R)-7-Cyclopropanesulfonyl-17-ethyl-4,15-dimethyl-2-(1-oxo-1,2-dihydro-isoquinolin-7-ylamino)-13-oxa-4,11-diaza-tricyclo[14.2.2.1^6,10]henicosa-1(19),6,8,10(21),16(20),17-hexaene-3,12-dione], for which, at Factor VIIa, the inhibition constant Ki was 0.96 nM.

Regarding `Cc1cc2ccc1[C@@H](C)COC(=O)Nc1cccc(c1)CN(CCN)C(=O)[C@@H]2Nc1ccc2cc[nH]c(=O)c2c1` [Example 149, (2R,15R)-4-(2-Amino-ethyl)-15,17-dimethyl-2-(1-oxo-1,2-dihydro-isoquinolin-7-ylamino)-13-oxa-4,11-diaza-tricyclo[14.2.2.1^6,10]henicosa-1(19),6,8,10(21),16(20),17-hexaene-3,12-dione], the affinity on Factor VIIa corresponds to a Ki of 1210 nM.

`Cc1cc2cc(C)c1CCOC(=O)Nc1cccc(c1)CN(CCC(=O)O)C(=O)C2Nc1ccc2cc[nH]c(=O)c2c1` (centres unmarked) [Example 145, 3-[17,20-Dimethyl-3,12-dioxo-2-(1-oxo-1,2-dihydro-isoquinolin-7-ylamino)-13-oxa-4,11-diaza-tricyclo[14.2.2.1^6,10]henicosa-1(19),6,8,10(21),16(20),17-hexaen-4-yl]-propionic acid]: the affinity at Factor VIIa, expressed as Ki, was 1300 nM.

Consider `Cc1cc2ccc1[C@@H](C)COC(=O)Nc1ccc(N3CCCCS3(=O)=O)c(c1)CN(C)C(=O)[C@@H]2Nc1ccc2cc[nH]c(=O)c2c1` [Example 86, (2R,15R)-7-(1,1-Dioxo-1λ^6-perhydro-1,2-thiazin-2-yl)-4,15,17-trimethyl-2-(1-oxo-1,2-dihydro-isoquinolin-7-ylamino)-13-oxa-4,11-diaza-tricyclo[14.2.2.1^6,10]henicosa-1(19),6,8,10(21),16(20),17-hexaene-3,12-dione], for which the Ki on Factor VIIa came out at 1.95 nM.

For `Cc1cc2ccc1[C@@H](C)COC(=O)Nc1cccc(c1)[C@@H](C)NC(=O)[C@@H]2Nc1ccc2cc[nH]c(=O)c2c1` [Example 158], the Ki on Factor VIIa was 27.1 nM and 97.5 nM.

For `Cc1cc2ccc1[C@@H](C)COC(=O)Nc1cccc(c1)CN(CCO)C(=O)[C@@H]2Nc1ccc2cc[nH]c(=O)c2c1` [Example 151, (2R,15R)-4-(2-Hydroxy-ethyl)-15,17-dimethyl-2-(1-oxo-1,2-dihydro-isoquinolin-7-ylamino)-13-oxa-4,11-diaza-tricyclo[14.2.2.1^6,10]henicosa-1(19),6,8,10(21),16(20),17-hexaene-3,12-dione], the affinity on Factor VIIa, expressed as Ki, was 1120 nM.

At Factor VIIa, `Cc1cc2ccc1[C@@H](C)COC(=O)Nc1ccc(S(=O)(=O)C3CC3)c(c1)CN(C)C(=O)[C@@H]2Nc1ccc2cc[nH]c(=O)c2c1` [Example 79, (2R,15R)-7-Cyclopropanesulfonyl-4,15,17-trimethyl-2-(1-oxo-1,2-dihydro-isoquinolin-7-ylamino)-13-oxa-4,1-diaza-tricyclo[14.2.2.1^6,10]henicosa-1(19),6,8,10(21),16(20),17-hexaene-3,12-dione] returned a Ki of 0.88 nM.

For `CCN1CC(=O)Nc2ccc(S(=O)(=O)C(C)C)c(c2)CNC(=O)C(Nc2ccc3nc[nH]c(=O)c3c2)c2cc(C)c(c(C)c2)C1` (centres unmarked) [Example 121, 14-Ethyl-17,20-dimethyl-2-(4-oxo-3,4-dihydro-quinazolin-6-ylamino)-7-(propane-2-sulfonyl)-4,11,14-triaza-tricyclo[14.2.2.1^6,10]henicosa-1(19),6,8,10(21),16(20),17-hexaene-3,12-dione bistrifluoroacetate], the inhibition constant Ki at Factor VIIa is 23.6 nM.

`CCO[C@H]1COC(=O)Nc2ccc(S(=O)(=O)C3CC3)c(c2)CN(C)C(=O)[C@H](Nc2ccc3cc[nH]c(=O)c3c2)c2ccc1c(C)c2` (single isomer, unassigned) [Example 40] registered a Ki on Factor VIIa of 1.57 nM.

Turning to `COc1cc2cc(OC)c1CCOC(=O)Nc1cccc(c1)[C@@H](CC(=O)O)NC(=O)[C@@H]2Nc1ccc2nc[nH]c(=O)c2c1` [Example 13, [(2R,5R)-17,20-Dimethoxy-3,12-dioxo-2-(4-oxo-3,4-dihydro-quinazolin-6-ylamino)-13-oxa-4,11-diaza-tricyclo[14.2.2.1^6,10]henicosa-1(19),6,8,10(21),16(20),17-hexaen-5-yl]-acetic acid], at Factor VIIa, the Ki is 24 nM and 40.4 nM.

Regarding `Cc1cc2ccc1[C@@H](C)COC(=O)Nc1ccc(N3C(=O)C4CCC3CC4)c(c1)CN(C)C(=O)[C@@H]2Nc1ccc2cc[nH]c(=O)c2c1` [Example 168, (2R,15R)-4,15,17-Trimethyl-7-(3-oxo-2-aza-bicyclo[2.2.2]oct-2-yl)-2-(1-oxo-1,2-dihydro-isoquinolin-7-ylamino)-13-oxa-4,11-diaza-tricyclo[14.2.2.1^6,10]henicosa-1(19),6,8,10(21),16(20),17-hexaene-3,12-dione], affinity on Factor VIIa was put at a Ki of 0.88 nM.

Take `CC[C@H]1COC(=O)Nc2ccc(S(=O)(=O)C3CC3)c(c2)CN(C)C(=O)[C@H](Nc2ccc3nc[nH]c(=O)c3c2)c2ccc1cc2` [Example 65, (2R,15R)-7-Cyclopropanesulfonyl-15-ethyl-4-methyl-2-(4-oxo-3,4-dihydro-quinazolin-6-ylamino)-13-oxa-4,11-diaza-tricyclo[14.2.2.1^6,10]henicosa-1(19),6,8,10(21),16(20),17-hexaene-3,12-dione]: the Ki at Factor VIIa is 29.4 nM and 34 nM.

Consider “recombinant nematode anticoagulant protein c2 [rNAPc2]”, for which, in series [3], the deep vein thrombosis result is given as “prevents deep vein thrombosis”. Further, the systemic thrombin generation result in series [4] was “reduces systemic thrombin generation”. The “magnitude and duration of ischemic events” value in series [5] is “reduces magnitude and duration of ischemic events”.

In turn, `CC(C)S(=O)(=O)c1ccc2cc1CN(C)C(=O)[C@H](Nc1ccc3c(c1)C(=O)NC3)c1ccc(cc1)CCCC(=O)N2` had a ring closure, yield of all isomers in series [1] (from CNCc1cc(NC(=O)CCCc2ccc(C(Nc3ccc4c(c3)C(=O)NC4)C(=O)O)cc2)ccc1S(=O)(=O)C(C)C, 8.05 mM, 16.0 h) of 31.8%.
